Biological target: Sigma intracellular receptor 2 (Homo sapiens) (UniProt Q5BJF2)
Details: Compound concentration 10 µM
Description: PDSP Primary Binding target: TMEM97 - Compounds are tested at 10 uM concentration, plate are incubated at room temperature in the dark for 90 minutes. Reaction are stopped by vacuum filtration onto 0.3% polyethyleneimine soaked filter mats using Filtermate harvester. Scintilation cocktail is then melted onto microwave-dried filters on a hot plate and the radio activity is counted in Microbia counter.

Sigma intracellular receptor 2 (Homo sapiens), sequence (Q5BJF2 whole entry): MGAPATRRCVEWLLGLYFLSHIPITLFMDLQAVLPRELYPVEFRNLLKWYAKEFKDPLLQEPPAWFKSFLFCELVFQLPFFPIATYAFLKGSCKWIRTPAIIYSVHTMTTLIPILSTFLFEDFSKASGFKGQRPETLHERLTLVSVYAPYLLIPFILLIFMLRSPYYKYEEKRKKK

SMILES | inhibition
COc1cccc([C@H](O)C2CCN(CCc3ccc(F)cc3)CC2)c1OC | 95.9%
CCCCc1nc(Cl)c(CO)n1Cc1ccc(-c2ccccc2-c2nnn[nH]2)cc1 | 27.4%
Cc1c(OCc2cccc(-c3ccc(C(=O)O)cc3)c2)cc2c(c1C)C(=O)C(C1CCCC1)C2 (stereo not drawn) | -3.24%
CC(C)NCC(O)COc1ccc(CCOCC2CC2)cc1 (stereo not drawn) | 76.2%
Cc1nc(-c2ccc(-c3ccc(C(=O)N4CCc5cc6c(cc54)C4(CCN(C)CC4)CO6)cc3)c(C)c2)no1 | 95.4%
CN1C(=O)[C@@H](NC(=O)c2cc3ccccc3[nH]2)N=C(c2ccccc2)c2ccccc21 | 8.74%
COc1ccc(Br)cc1S(=O)(=O)NC(=O)/C=C/c1ccccc1Cc1ccc2ccccc2c1 | 5.53%
CC[C@@H]1CN2C(=O)N(C)c3nc(-c4ccccc4)[nH]c3C2=N1 | 4.68%
O=C(Nc1ccc(Cl)cc1)Nc1cccc(-c2cccc(N3CCCC3)n2)c1 | 6.97%
C=CCN1C[C@H](C)N([C@H](c2ccc(C(=O)N(CC)CC)cc2)c2cccc(O)c2)C[C@H]1C | 46.7%
CNC[C@H](O)c1cccc(O)c1 | 24.9%
CCc1ccc(OCc2ccccc2C(=O)Nc2ccc3nc(C)cc(N)c3c2)cc1 | 91.7%
Cc1cc(C(=O)N2Cc3cnn(C)c3Nc3ccccc32)ccc1CNC(=O)N1CCC[C@H]1C(=S)N1CCCN(C)CC1 | -1.48%
C/C(=N\NC(=O)[C@@H]1C(=O)NC[C@H]1c1ccccc1)c1cccc(Br)c1 | 4.05%
CCN(CC)CCCCC1CCN(CC(=O)N2c3ccccc3C(=O)Nc3cccnc32)CC1 | 82.1%
CCCCCCCCCCCCCCCCOC[C@H](COP(=O)([O-])OCC[N+](C)(C)C)OC(C)=O | 57.9%
Cc1nc(C(=O)N2CCC[C@H]2Cc2nnc(-c3ccccc3)o2)c(-c2ccccc2F)s1 | 12.9%
S=C(NCCCc1c[nH]cn1)NCCCN(Cc1ccc(Cl)c(Cl)c1)c1ccc(Br)cn1 | 97.7%
COc1cc2c(CCNC(C)=O)c[nH]c2cc1Cl | -5.25%
CCc1cc2c(c(CC)n1)CCC(=O)N2Cc1ccc(-c2ccccc2-c2nnn[nH]2)cc1 | 8.89%
CC(C)(N)C(=O)N[C@H](COCc1ccccc1)C(=O)N1CCC2(CC1)CN(S(C)(=O)=O)c1ccccc12 | 21.1%
CCOC(=O)c1c(C)[nH]c2ccc3c(c12)CN1CCc2cc(OC)ccc2C1O3 (stereo not drawn) | 36.3%
CCCSc1nc(N[C@@H]2C[C@H]2c2ccc(F)c(F)c2)c2nnn([C@@H]3C[C@H](OCCO)[C@@H](O)[C@H]3O)c2n1 | 63.6%
O=C(Cc1ccccc1)Nc1nc2ccc(Cl)cc2c2nc(-c3ccco3)nn12 | -6.83%
Nc1nc(NCCc2ccc(O)cc2)nc2nc(-c3ccco3)nn12 | 90.6%

SMILES | inhibition
CN(C)C(=O)C(CCN1CCC(O)(c2ccc(Cl)cc2)CC1)(c1ccccc1)c1ccccc1 | 95.5%
Cc1cccc(NC(=O)N[C@@H]2N=C(c3ccccc3)c3ccccc3N(C)C2=O)c1 | 15.4%
Cc1csc2c(N[C@@H](C)CN3CCN(S(=O)(=O)c4ccc(Cl)c(Cl)c4)CC3)ncnc12 | 73.2%
COc1ccc(NS(=O)(=O)c2sc3ccc(Cl)cc3c2C)cc1N1CCNCC1 | 81.8%
COc1ccc(/C=C/CCCCOc2ccc(C(=O)c3cccc(C(=O)O)c3)cc2CCC(=O)O)cc1 | 2.85%
CCCCCNC(=O)NS(=O)(=O)c1cc([N+](=O)[O-])ccc1NC1CCCCC1 | 3.25%
O=S1(=O)c2cccc3cccc(c23)N1CCCN1CCN(c2ccc(F)cc2)CC1 | 96.9%
C[C@H](Cc1cc2c(c(C(N)=O)c1)N(CCCO)CC2)NCCOc1ccccc1OCC(F)(F)F | 17.6%
CN(C(=O)Cc1ccc(Cl)c(Cl)c1)C(CN1CCCC1)c1cccc(OCC(=O)O)c1 (stereo not drawn) | 21.9%
C[C@@H](NCCc1ccc(O)cc1)[C@@H](O)c1ccc(O)cc1 (relative stereo) | 58.1%
CCCCCNC(=N)N/N=C/c1c[nH]c2ccc(OC)cc12 | 94.2%
CCCCN1CCC(COC(=O)c2cc(Cl)c(N)c3c2OCCO3)CC1 | 96.8%
CCCCC#Cc1nc(NC)c2ncn([C@@H]3O[C@H](CO)[C@@H](O)[C@H]3O)c2n1 | 8.59%
CN1CC(=O)N=C1NC(=O)Nc1cccc(Cl)c1 | 0.02%
Cc1ccccc1C(=O)Nc1ccc(C(=O)N2CCCC(O)c3cc(Cl)ccc32)c(C)c1 (stereo not drawn) | 91.8%
Cc1cc(NC(=O)Nc2ccc(N(C)C)cc2)c2cc(F)cc(F)c2n1 | 1.52%
Cc1cccc([C@H](C)c2c[nH]cn2)c1C | 37.8%
O=c1ccn([C@@H]2O[C@H](COP(=O)(O)OP(=O)(O)O)[C@@H](O)[C@H]2O)c(=O)[nH]1 | 2.62%
C[C@@H](N)Cc1c[nH]cn1 | 20.2%
C[C@H](NC[C@H](O)CP(=O)(O)CC1CCCCC1)c1ccc(Cl)c(Cl)c1 | 26.7%
CC(C)(C)NC[C@H](O)COc1nsnc1N1CCOCC1 | 10.5%
CCCn1c(=O)c2[nH]c(-c3cnn(Cc4cccc(C(F)(F)F)c4)c3)nc2n(CC)c1=O | 18%
COC(=O)C1=C(C)NC(C)=C(C(=O)OCCCN2CCC(c3ccccc3)(c3ccccc3)CC2)[C@H]1c1cccc([N+](=O)[O-])c1 | 98.7%
Clc1cccc(COc2cncc(N3CCNCC3)n2)c1 | 86.4%
COc1ccc(OC(F)(F)F)cc1CN[C@H]1CCCN[C@H]1c1ccccc1 | 90.5%

SMILES | inhibition
CC(C)NCC(O)c1ccc(N)c(C#N)c1 (stereo not drawn) | 29.6%
CCCCN(CC)c1nc(C)nc2c1c(C)cn2-c1c(C)cc(C)cc1C | 78.3%
c1ccc(N2CCN(Cc3nc4ccccc4[nH]3)CC2)nc1 | 1.4%
COc1ccccc1CN[C@H]1C2CCN(CC2)[C@H]1C(c1ccccc1)c1ccccc1 | 62.5%
Oc1ccc2c3c1O[C@H]1c4[nH]c5c(c4C[C@@]4(O)[C@@H](C2)N(CC2CC2)CC[C@]314)C[C@@]1(O)[C@H]2Cc3ccc(O)c4c3[C@@]1(CCN2CC1CC1)[C@H]5O4 | 30.2%
CC(C)C[C@H](NC(=O)N1CCCCCC1)C(=O)N[C@H](Cc1cn(C)c2ccccc12)C(=O)N[C@H](Cc1ccccn1)C(=O)O | 9.3%
COc1cc(-n2cnc3cc(-c4ccc(Cl)cc4)sc3c2=O)ccc1OCCN1CCCC1 | 94.7%
CSc1ccc(C(=O)N[C@@H]2CCCC[C@@H]2NC(=O)CNC(=O)c2cc(C(F)(F)F)ccc2NC(=O)NC(C)C)cc1 | 18.9%
CCCCN(CCCC)C(=O)CN1C[C@@H](c2ccc3c(c2)OCO3)[C@H](C(=O)O)[C@H]1c1ccc(OC)cc1 | -0.23%
C[C@@H](NCCCc1cccc(C(F)(F)F)c1)c1cccc2ccccc12 | 95.5%
COc1cccc([C@@H](C)NCCCc2ccccc2Cl)c1 | 96.3%
OC1(c2ccc(Cl)cc2)CCN(Cc2c[nH]c3ccccc23)CC1 | 97.8%
Cc1nc2sccn2c(=O)c1CCN1CCC(=C(c2ccc(F)cc2)c2ccc(F)cc2)CC1 | 98.7%
COc1ccc(S(=O)(=O)c2cc(OC)ccc2S(=O)(=O)c2ccc([C@H](C)NS(C)(=O)=O)cc2)cc1 | 32.1%
CC(C)NCC(O)COc1cccc2ccccc12 (stereo not drawn) | 90%
Nc1nc2c(c(N3CCNCC3)n1)CCC1=C2[C@@H]2CCCC[C@@H]2O1 | 36.6%
NC[C@@H]1O[C@H](C23CC4CC(CC(C4)C2)C3)Cc2c1ccc(O)c2O | 81.7%
O=C(Cc1ccc(Cl)c(Cl)c1)N1CCCC[C@H]1CN1CCCC1 | 92.3%
O=C(c1cc2c(cc1F)OC(c1ccc(F)cc1)(c1ccc(Cl)cc1Cl)O2)N1CCOCC1 (stereo not drawn) | 72.4%
CN1C2CCC1CC(OC(c1ccc(F)cc1)c1ccc(F)cc1)C2 (stereo not drawn) | 100%
N=C(N)SCCc1c[nH]cn1 | 13.8%
N#Cc1ccc2[nH]cc(CCCCN3CCN(c4ccc5oc(C(N)=O)cc5c4)CC3)c2c1 | 80.3%
N#Cc1cccc(C(=O)Nc2cc(-c3ccccc3)nn2-c2ccccc2)c1 | -8.91%

— ChEMBL document CHEMBL5442219
